12 molecules from US8710077B2, “Cycloalkylamine substituted isoquinoline and isoquinolinone derivatives” (Sanofi, priority 2006, dated 2014) can be followed below.

The experiment deals with T1, human recombinant ROCK II (Homo sapiens, UniProt O75116).
T1 construct: recombinant human ROCK-II residues 11-552; His6 (N); purchased Upstate Ltd., Dundee, UK
T1 sequence (O75116 11-552): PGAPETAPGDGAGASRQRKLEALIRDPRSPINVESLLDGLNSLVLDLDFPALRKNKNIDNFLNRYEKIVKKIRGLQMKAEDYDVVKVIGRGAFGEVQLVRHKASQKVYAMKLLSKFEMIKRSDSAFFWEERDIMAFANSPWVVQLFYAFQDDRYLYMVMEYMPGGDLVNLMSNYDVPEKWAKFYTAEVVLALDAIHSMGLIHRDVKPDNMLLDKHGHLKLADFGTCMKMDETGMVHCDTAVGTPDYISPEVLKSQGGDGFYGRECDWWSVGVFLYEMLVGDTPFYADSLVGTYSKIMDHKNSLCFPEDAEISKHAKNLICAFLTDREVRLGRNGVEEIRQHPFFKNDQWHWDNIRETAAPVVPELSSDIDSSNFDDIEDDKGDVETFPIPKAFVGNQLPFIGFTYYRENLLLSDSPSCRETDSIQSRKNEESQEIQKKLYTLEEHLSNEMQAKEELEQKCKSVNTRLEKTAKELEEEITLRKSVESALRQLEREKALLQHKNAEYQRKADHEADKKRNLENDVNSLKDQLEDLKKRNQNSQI
Put plainly: Determination of Rho Kinase Inhibition (Caliper peptide phosphorylation assay). Format: biochemical. To be noted: ROCK II residues 11-552, 60 min at 32° C., compound in the form (salt or free base) obtained in the examples. As for the experimental part: Determination of Rho Kinase Inhibition
To measure Rho-kinase inhibition, IC50 values were determined according to the following protocol:
Active human recombinant ROCK II (N-terminal His6-tagged recombinant human ROCK-II residues 11-552) was purchased from Upstate Ltd., Dundee, UK. The peptide substrate, Fluorescein-AKRRRLSSLRA-COOH, was obtained from JPT Peptide Technologies, Berlin, Germany. Adenosine-5′-triphosphate (ATP), bovine serum albumine (BSA), dimethylsulphoxide (DMSO), 4-(2-Hydroxyethyl)piperazine-1-ethanesulfonic acid (Hepes), Brij-35 and dithiothreitol (DTT) were purchased from Sigma-Aldrich, Munich, Germany. Tris(hydroxymethyl)-aminomethane (Tris), magnesium chloride, NaOH, 1M HCl and EDTA were obtained from Merck Biosciences, Darmstadt, Germany. “Complete” protease inhibitor was from Roche Diagnostics, Mannheim, Germany.
Test compounds were diluted to the appropriate concentrations in buffer 1 (25 mM Tris-HCl, pH 7.4, 5 mM MgCl2, 2 mM DTT, 0.02% (w/v) BSA and 3% DMSO). The ROCK II enzyme was diluted to a concentration of 100 ng/ml in buffer 2 (25 mM Tris-HCl, pH 7.4, 5 mM MgCl2, 2 mM DTT and 0.02% (w/v) BSA). The peptide substrate and ATP were diluted to concentrations of 3 μM and 120 μM, respectively, in the buffer 2. Two μl of the compound solution were mixed with 2 μl of the diluted enzyme in a 384-well small volume microtiter plate (Greiner, Bio-One, Frickenhausen, Germany), and the kinase reaction was initiated by addition of 2 μl of the solution containing peptide substrate and ATP. After 60 min incubation at 32° C., the reaction was stopped by addition of 20 μl of a solution containing 100 mM Hepes-NaOH, pH 7.4, 0.015% (v/v) Brij-35, 45 mM EDTA and 0.227% chip coating reagent 1 (Caliper Lifescience Inc, Hopkinton, Mass.). Phosphorylation of the substrate peptide was then detected on a Caliper 3000 instrument essentially as described by Pommereau et al (J. Biomol. Screening 9 (5), 409-416, 2004). Separation conditions were as follows: Pressure—1.3 psi, upstream voltage—1562 V, downstream voltage—500 V, sample sip time 200 ms. Positive controls (buffer 1 instead of compound) and negative controls (buffer 1 instead of compound and buffer 2 instead of ROCK II) were run in parallel on each plate.
The following products/compounds were tested in said assay by using the respective form (salt or free base) obtained as in the examples described above and the following activities were measured.
The term IC50 denotes the concentration that inhibits the measured activity by half. As for `C=CCC1(N)CCC(Oc2cc3cc[nH]c(=O)c3cc2Cl)CC1` (mixture of isomers) [Compound 20, 6-(4-Allyl-4-amino-cyclohexyloxy)-7-chloro-2H-isoquinolin-1-one], the IC50 was not above 1000 nM.
Consider `NC1(CC(O)CO)CCC(Oc2cc3cc[nH]c(=O)c3cc2Cl)CC1` (mixture of isomers) [Compound 57, 6-[4-amino-4-(2,3-dihydroxy-propyl)-cyclohexyloxy]-7-chloro-2H-isoquinolin-1-one], for which the IC50 is not above 1000 nM.
In the case of `N[C@]1(C2CC2)CC[C@H](Oc2cc3cc[nH]c(=O)c3cc2Cl)CC1` [Compound 41, 6-(cis-4-Amino-4-cyclopropyl-cyclohexyloxy)-7-chloro-2H-isoquinolin-1-one], the IC50 was not above 1000 nM.
In the case of `NCC1(c2ccccc2)CCC(Oc2cc3cc[nH]c(=O)c3cc2Cl)CC1` (stereo not drawn) [Compound 108, 6-(4-Aminomethyl-4-phenyl-cyclohexyloxy)-7-chloro-2H-isoquinolin-1-one], the half-maximal inhibitory concentration (IC50) is not above 1000 nM.
For `NCC1(c2ccc(Cl)cc2)CCC(Oc2cc3cc[nH]c(=O)c3cc2Cl)CC1` (stereo not drawn) [Compound 109, 6-[4-Aminomethyl-4-(4-chloro-phenyl)-cyclohexyloxy]-7-chloro-2H-isoquinolin-1-one], the IC50 is not above 1000 nM.
Turning to `NCC1(c2cccc(Cl)c2)CCC(Oc2cc3cc[nH]c(=O)c3cc2Cl)CC1` (stereo not drawn) [Compound 110, 6-[4-Aminomethyl-4-(3-chloro-phenyl)-cyclohexyloxy]-7-chloro-2H-isoquinolin-1-one], the IC50 was not above 1000 nM.
In the case of `Cc1cccc(C2(CN)CCC(Oc3cc4cc[nH]c(=O)c4cc3Cl)CC2)c1` (stereo not drawn) [Compound 111, 6-[4-Aminomethyl-4-(3-methyl-phenyl)-cyclohexyloxy]-7-chloro-2H-isoquinolin-1-one], the IC50 was 1000 to 10000 nM.
`COc1ccc(C2(CN)CCC(Oc3cc4cc[nH]c(=O)c4cc3Cl)CC2)cc1OC` (stereo not drawn) [Compound 112, 6-[4-Aminomethyl-4-(3,4-dimethoxy-phenyl)-cyclohexyloxy]-7-chloro-2H-isoquinolin-1-one]: the half-inhibitory concentration (IC50) was not above 1000 nM.
The same measure for `NCC1(c2ccc(F)cc2)CCC(Oc2cc3cc[nH]c(=O)c3cc2Cl)CC1` (stereo not drawn) [Compound 113, 6-[4-Aminomethyl-4-(4-fluoro-phenyl)-cyclohexyloxy]-7-chloro-2H-isoquinolin-1-one]: not above 1000 nM; for `COc1ccc(C2(CN)CCC(Oc3cc4cc[nH]c(=O)c4cc3Cl)CC2)cc1` (stereo not drawn) [Compound 114, 6-[4-Aminomethyl-4-(4-methoxy-phenyl)-cyclohexyloxy]-7-chloro-2H-isoquinolin-1-one]: not above 1000 nM; for `NCC1(c2ccc(Cl)c(Cl)c2)CCC(Oc2cc3cc[nH]c(=O)c3cc2Cl)CC1` (stereo not drawn) [Compound 116, 6-[4-Aminomethyl-4-(3,4-dichloro-phenyl)-cyclohexyloxy]-7-chloro-2H-isoquinolin-1-one]: not above 1000 nM.
Turning to `NCC1(c2ccccc2)CCC(Oc2cc3ccncc3cc2Cl)CC1` (stereo not drawn) [Compound 120, C-[4-(7-Chloro-isoquinolin-6-yloxy)-1-phenyl-cyclohexyl]-methylamine], the IC50 is not above 1000 nM.
